In patent US7141249B2, “Rapidly soluble drug composition” (Dainippon Sumitomo Pharma Co., Ltd., priority 1997, dated 2006):

What was measured:
aldose reductase = aldose reductase (Homo sapiens, UniProt P15121); conditions: disclosed in earlier patents (U.S. Pat. No. 5,258,382, JP-A-6-192222, JP-A-8-176105); cited from earlier work
Acidity (pKa) of AS-3201 = type: physicochemical
[1] = Plasma concentration after administration; type: in vivo; conditions: among the individuals to be administered
[2] = Water-solubility of AS-3201; type: physicochemical; conditions: in the range of low pH
From the text: The “micronized AS-3201” means powders of AS-3201 having a mean particle size of less than about 20 μm. The “mean particle size” means a particle size of being at 50% in cumulative particle distribution on weight or volume basis (ref., HA Lieberman et al., “Pharmaceutical Dosage Forms: Tablets”, Marcel Dekker, Inc., New York, 1990, vol. 2, 174–186; Kouichi IINOYA (edit.) “Handbook of Powder and Particle Measurement (in Japanese)”, The NIKKAN KOGYO SHINBUN LTD., 1981, 29–36). The “dissolution test” means a test in which the dissolution of AS-3201 from test pharmaceutical compositions in an amount corresponding to 20 mg of AS-3201 is evaluated according to Paddle method (50 rpm) specified in the Twelfth Edition of the Pharmacopoeia of Japan, using a 0.2 M phosphate buffer (pH 6.5, 900 ml) as a test solution, and assaying AS-3201 by spectrophotometry at 300 nm. The “pKa1” means an acid dissociation exponent of an acidic substance at 25° C. in an infinitely diluted solution thereof. When an acidic substance is a polybasic acid, it means an acid dissociation exponent at the first step of dissociation. The “water-solubility” means a maximum amount of a solute being dissolved in 100 ml of water. The term “about” is used with the intention of including values following said term.

- pKa (Acidity (pKa) of AS-3201): 5.6 to 5.8
- plasma concentration of AS-3201 (variation among individuals) [1]: varies widely
- water-solubility [2]: several
SMILES: O=C1C[C@@]2(C(=O)N1)C(=O)N(Cc1ccc(Br)cc1F)C(=O)c1cccn12 [AS-3201, (R)-2-(4-bromo-2-fluorobenzyl)-1,2,3,4-tetrahydropyrrolo[1,2-a]pyrazine-4-spiro-3′-pyrrolidine-1,2′,3,5′-tetrone]
- aldose reductase inhibitory activity (aldose reductase): potent
